Earlier results on 1 compound are cited in patent US20210161808A1, “Nasal Drug Delivery System of Brivaracetam or Salt Thereof” (Zenvision Pharma LLP, priority 2018, published 2021).

Data set [1] concerns the target synaptic vesicle protein 2A (SV2A) (Homo sapiens, UniProt Q7L0J3). The note with it: in the brain.

SMILES strings stand for the structures. Like-named read-outs stand apart in the source and are kept apart here.

Chain of synaptic vesicle protein 2A (SV2A) (Q7L0J3 whole entry): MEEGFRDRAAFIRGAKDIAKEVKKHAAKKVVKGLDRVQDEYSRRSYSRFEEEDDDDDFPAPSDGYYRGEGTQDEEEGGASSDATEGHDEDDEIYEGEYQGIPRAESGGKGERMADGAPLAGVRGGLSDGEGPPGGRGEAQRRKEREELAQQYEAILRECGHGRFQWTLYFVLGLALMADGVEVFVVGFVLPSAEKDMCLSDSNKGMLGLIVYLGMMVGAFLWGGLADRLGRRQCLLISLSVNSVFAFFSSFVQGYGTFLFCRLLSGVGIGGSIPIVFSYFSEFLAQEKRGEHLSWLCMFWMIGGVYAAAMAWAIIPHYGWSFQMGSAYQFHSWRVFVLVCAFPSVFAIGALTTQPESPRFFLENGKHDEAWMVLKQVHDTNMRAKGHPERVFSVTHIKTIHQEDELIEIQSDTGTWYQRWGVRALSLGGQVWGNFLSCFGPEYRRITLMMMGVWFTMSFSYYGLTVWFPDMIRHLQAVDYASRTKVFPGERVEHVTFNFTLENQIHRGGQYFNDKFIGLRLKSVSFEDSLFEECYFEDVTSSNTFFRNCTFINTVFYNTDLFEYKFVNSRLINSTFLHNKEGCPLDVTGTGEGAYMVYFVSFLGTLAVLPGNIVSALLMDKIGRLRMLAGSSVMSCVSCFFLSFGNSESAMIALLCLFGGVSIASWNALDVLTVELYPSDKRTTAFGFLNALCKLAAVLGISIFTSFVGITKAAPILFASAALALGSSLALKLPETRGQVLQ

In the case of `CCC[C@@H]1CC(=O)N([C@@H](CC)C(N)=O)C1` [Brivaracetam, (2S)-2-[(4R)-2-oxo-4-propyltetrahydro-1H-pyrrol-1-yl] butanamide], the solubility result is recorded as “freely soluble” (in acetone); “freely soluble” (in acetonitrile); “very soluble” (in buffer (pH 1.2, 4.5, and 7.4)); “very soluble” (in ethanol); “very soluble” (in glacial acetic acid); “very soluble” (in methanol). The solubility result was “very slightly soluble” (in n-hexane), “soluble” (in toluene) and “very soluble” (in water). For the same compound, the “affinity for synaptic vesicle protein 2A (SV2A)” value in data set [1] was “high and selective affinity”.
